In brackets after ≈: the same amount, converted by molar mass. Numbered stars: 1 amine (or outer) side, 2 acyl side, 3 side chain; on linkers, the order of the positions; unused ones are H or OH. Bridge positions count the residues as written; N and C are the ends. Square brackets hold non-standard residues; d marks the D form. Peptide text beside a SMILES is read from it. * marks the point of attachment. X1 = O=C1C[C@@H](C(=O)[*:2])N([*:1])C[C@H]1CS[C@@H]1CN2CCC1CC2; NMePhe(4-NMe2) = CN[C@@H](Cc1ccc(N(C)C)cc1)C(=O)O; Picolinoyl(3-OH) = O=C(c1ncccc1O)*; Phg = N[C@H](C(=O)O)c1ccccc1; dAbu = CC[C@@H](N)C(=O)O

For experiment [1], the system named is Staphylococcus aureus. Nature of the experiment: Antimicrobial activity against Staphylococcus aureus RN4220. Type of experiment: functional.
The subject of experiment [2] is Staphylococcus aureus. The experiment in a line: Antimicrobial activity against Staphylococcus aureus RN1024. The class given is functional.
Experiment [3] relates to Staphylococcus aureus. Nature of the experiment: Antimicrobial activity against Staphylococcus aureus RN1024-tms. The class given is functional.
The test system of experiment [4] is Staphylococcus aureus. The experiment in a line: Antimicrobial activity against Staphylococcus aureus RN4220 harboring plasmid VGA.
Experiment [5] concerns Staphylococcus aureus. The experiment in a line: Antimicrobial activity against Staphylococcus aureus RN4220 harboring plasmid CU1.
For experiment [6], the system named is Staphylococcus aureus. Nature of the experiment: Antimicrobial activity against Staphylococcus aureus RN4220 harboring vgaAv positive plasmid CU1.
Experiment [7] deals with Staphylococcus aureus. The experiment in a line: microbe, parasite or virus in culture. The conditions noted are these: ATCC 29213.
Description: Antimicrobial activity against Staphylococcus aureus ATCC 29213
Experiment [8] concerns Staphylococcus aureus. The experiment in a line: Antimicrobial activity against Staphylococcus aureus IV20204009 harboring vgaAv positive Tn5406 transposon. The class given is functional.
The test system of experiment [9] is Staphylococcus aureus. Nature of the experiment: Antimicrobial activity against Staphylococcus aureus IV20205004 harboring vgaAv positive Tn5406 transposon. Type of experiment: functional.
In experiment [10] the test system is Staphylococcus aureus. Nature of the experiment: Antimicrobial activity against Staphylococcus aureus IV20217008 harboring vgaAv positive Tn5406 transposon. Type of experiment: functional.
In experiment [11] the test system is Staphylococcus aureus. The experiment in a line: Antimicrobial activity against Staphylococcus aureus IV20217033 harboring vgaA positive plasmid VGA. Type of experiment: functional.
Experiment [12] deals with Staphylococcus aureus. The experiment in a line: Antimicrobial activity against Staphylococcus aureus IV20222009 harboring vgaAv positive Tn5406 transposon. Type of experiment: functional.
The test system of experiment [13] is Staphylococcus aureus. Nature of the experiment: Antimicrobial activity against Staphylococcus aureus IHMA127277 harboring vgaAv positive Tn5406 transposon. The class given is functional.

In the case of GENTAMICIN, the MIC against Staphylococcus aureus [1] is 1 µg/mL; against Staphylococcus aureus [2] it was greater than 64 µg/mL; in the experiment with Staphylococcus aureus [3] it was greater than 64 µg/mL.
With `C[C@H]1COc2c(N3CCN(C)CC3)c(F)cc3c(=O)c(C(=O)O)cn1c23.C[C@H]1COc2c(N3CCN(C)CC3)c(F)cc3c(=O)c(C(=O)O)cn1c23.O` [LEVOFLOXACIN], the MIC against Staphylococcus aureus [1] was found to be 0.125 µg/mL; with Staphylococcus aureus [4] it was 0.125 µg/mL; with Staphylococcus aureus [5], 0.125 µg/mL; with Staphylococcus aureus [6], 0.125 µg/mL; against Staphylococcus aureus [2], 16 µg/mL; in the experiment on Staphylococcus aureus [3] it was 32 µg/mL. This compound returned an MIC in the experiment with Staphylococcus aureus [7] of 0.125 µg/mL.
With `C/C(=C\C(=O)OCCCCCCCCC(=O)O)C[C@@H]1OC[C@H](C[C@@H]2O[C@H]2[C@@H](C)[C@H](C)O)[C@@H](O)[C@H]1O` [MUPIROCIN], the MIC in the experiment with Staphylococcus aureus [1] is no more than 0.06 µg/mL; in the experiment with Staphylococcus aureus [2], 0.25 µg/mL (≈ 0.499 µM); with Staphylococcus aureus [3] it was 0.25 µg/mL (≈ 0.499 µM); in the experiment with Staphylococcus aureus [7], 0.25 µg/mL (≈ 0.499 µM).
With `CC[C@H]1OC(=O)[C@H](C)[C@@H](O[C@H]2C[C@@](C)(OC)[C@@H](O)[C@H](C)O2)[C@H](C)[C@@H](O[C@@H]2O[C@H](C)C[C@H](N(C)C)[C@H]2O)[C@](C)(O)C[C@@H](C)C(=O)[C@H](C)[C@@H](O)[C@]1(C)O` [ERYTHROMYCIN], the MIC was 0.25 µg/mL (≈ 0.341 µM) in the experiment with Staphylococcus aureus [1]; 0.25 µg/mL (≈ 0.341 µM) against Staphylococcus aureus [4]; 0.25 µg/mL (≈ 0.341 µM) with Staphylococcus aureus [5]; 0.125 µg/mL (≈ 0.17 µM) with Staphylococcus aureus [6]; 0.25 µg/mL (≈ 0.341 µM) against Staphylococcus aureus [2]; 0.25 µg/mL (≈ 0.341 µM) against Staphylococcus aureus [3]. In addition, the MIC with Staphylococcus aureus [7] came to 0.5 µg/mL (≈ 0.681 µM).
Regarding `C=C[C@]1(C)C[C@@H](OC(=O)CSCCN(CC)CC)[C@]2(C)[C@H](C)CC[C@]3(CCC(=O)[C@H]32)[C@@H](C)[C@@H]1O` [TIAMULIN], the MIC in the experiment with Staphylococcus aureus [8] was 32 µg/mL (≈ 64.8 µM); against Staphylococcus aureus [9] it was 16 µg/mL (≈ 32.4 µM); with Staphylococcus aureus [10] it was 32 µg/mL (≈ 64.8 µM); against Staphylococcus aureus [11] it was greater than 64 µg/mL; in the experiment on Staphylococcus aureus [12] it was 16 µg/mL (≈ 32.4 µM); against Staphylococcus aureus [1] it was 0.5 µg/mL (≈ 1.01 µM). Moreover, the MIC against Staphylococcus aureus [4] was greater than 64 µg/mL; against Staphylococcus aureus [5], 0.25 µg/mL (≈ 0.506 µM); with Staphylococcus aureus [6], greater than 64 µg/mL; with Staphylococcus aureus [2] it was 16 µg/mL (≈ 32.4 µM); with Staphylococcus aureus [3] it was 0.5 µg/mL (≈ 1.01 µM); against Staphylococcus aureus [7], 1 µg/mL (≈ 2.03 µM).
As to `O=C(N[C@H](CO)[C@H](O)c1ccc([N+](=O)[O-])cc1)C(Cl)Cl` [CHLORAMPHENICOL], the MIC was 8 µg/mL (≈ 24.8 µM) with Staphylococcus aureus [1]; 8 µg/mL (≈ 24.8 µM) against Staphylococcus aureus [4]; greater than 64 µg/mL against Staphylococcus aureus [5]; greater than 64 µg/mL in the experiment with Staphylococcus aureus [6]; 8 µg/mL (≈ 24.8 µM) with Staphylococcus aureus [2]; 8 µg/mL (≈ 24.8 µM) against Staphylococcus aureus [3]. Also, in the experiment on Staphylococcus aureus [7], the MIC was found to be 16 µg/mL (≈ 49.5 µM).
In the experiment on Staphylococcus aureus [6], `CC(=O)NC[C@H]1CN(c2ccc(N3CCOCC3)c(F)c2)C(=O)O1` [LINEZOLID] returned an MIC of 1 µg/mL (≈ 2.96 µM).
With `CCC[C@@H]1C[C@@H](C(=O)N[C@@H]([C@H]2O[C@H](SC)[C@H](O)[C@@H](O)[C@H]2O)[C@H](C)Cl)N(C)C1` [CLINDAMYCIN], the MIC in the experiment with Staphylococcus aureus [1] is 0.06 µg/mL (≈ 0.141 µM); in the experiment on Staphylococcus aureus [4] it was 4 µg/mL (≈ 9.41 µM); against Staphylococcus aureus [5], 0.06 µg/mL (≈ 0.141 µM); in the experiment with Staphylococcus aureus [6] it was 2 µg/mL (≈ 4.71 µM); against Staphylococcus aureus [2] it was 0.25 µg/mL (≈ 0.588 µM); in the experiment with Staphylococcus aureus [3], 0.06 µg/mL (≈ 0.141 µM). For the same compound, the MIC with Staphylococcus aureus [7] is 0.125 µg/mL (≈ 0.294 µM).
Take `CO[C@H]1/C=C/O[C@@]2(C)Oc3c(C)c(O)c4c(O)c(c(/C=N/N5CCN(C)CC5)c(O)c4c3C2=O)NC(=O)/C(C)=C\C=C\[C@H](C)[C@H](O)[C@@H](C)[C@@H](O)[C@@H](C)[C@H](OC(C)=O)[C@@H]1C` [RIFAMPIN]: the MIC in the experiment with Staphylococcus aureus [1] was no more than 0.06 µg/mL; against Staphylococcus aureus [2], greater than 64 µg/mL; against Staphylococcus aureus [3], greater than 64 µg/mL; in the experiment with Staphylococcus aureus [7], less than 0.06 µg/mL.
Turning to `CCC[C@@H]1C[C@@H](C(=O)N[C@@H]([C@H]2O[C@H](SC)[C@H](O)[C@@H](O)[C@H]2O)[C@@H](C)O)N(C)C1` [LINCOMYCIN], the MIC turned out to be 0.5 µg/mL (≈ 1.23 µM) in the experiment with Staphylococcus aureus [1]; 32 µg/mL (≈ 78.7 µM) against Staphylococcus aureus [4]; 0.5 µg/mL (≈ 1.23 µM) in the experiment on Staphylococcus aureus [5]; 32 µg/mL (≈ 78.7 µM) against Staphylococcus aureus [6]; 8 µg/mL (≈ 19.7 µM) against Staphylococcus aureus [2]; 1 µg/mL (≈ 2.46 µM) in the experiment with Staphylococcus aureus [3]. In the experiment on Staphylococcus aureus [7], this compound gave an MIC of 2 µg/mL (≈ 4.92 µM).
Turning to `COc1cc(Cc2cnc(N)nc2N)cc(OC)c1OC` [TRIMETHOPRIM], the MIC against Staphylococcus aureus [1], in the experiment with Staphylococcus aureus [4], against Staphylococcus aureus [5], with Staphylococcus aureus [6], against Staphylococcus aureus [2] and against Staphylococcus aureus [3] was 2 µg/mL (≈ 6.89 µM) throughout. Besides, in the experiment with Staphylococcus aureus [7], the MIC is 2 µg/mL (≈ 6.89 µM).
Take `CCN(CC)CCS(=O)(=O)[C@@H]1CCN2C(=O)c3coc(n3)CC(=O)C[C@H](O)/C=C(C)/C=C/CNC(=O)/C=C/[C@@H](C)[C@@H](C(C)C)OC(=O)[C@@H]12` [DALFOPRISTIN]: the MIC was 4 µg/mL (≈ 5.79 µM) in the experiment with Staphylococcus aureus [1]; 32 µg/mL (≈ 46.3 µM) against Staphylococcus aureus [4]; 4 µg/mL (≈ 5.79 µM) in the experiment with Staphylococcus aureus [5]; 64 µg/mL (≈ 92.6 µM) with Staphylococcus aureus [6]; 64 µg/mL (≈ 92.6 µM) against Staphylococcus aureus [2]; 8 µg/mL (≈ 11.6 µM) against Staphylococcus aureus [3]. In addition, the MIC in the experiment on Staphylococcus aureus [7] stood at 8 µg/mL (≈ 11.6 µM).
In the case of `C=C[C@]1(C)C[C@@H](OC(=O)CS[C@@H]2C[C@H]3CC[C@@H](C2)N3C)[C@]2(C)[C@H](C)CC[C@]3(CCC(=O)[C@H]32)[C@@H](C)[C@@H]1O` [RETAPAMULIN], the MIC in the experiment with Staphylococcus aureus [8] was found to be 2 µg/mL (≈ 3.86 µM); in the experiment on Staphylococcus aureus [9], 2 µg/mL (≈ 3.86 µM); in the experiment on Staphylococcus aureus [10], 4 µg/mL (≈ 7.73 µM); against Staphylococcus aureus [11], 64 µg/mL (≈ 124 µM); in the experiment with Staphylococcus aureus [12] it was 4 µg/mL (≈ 7.73 µM); with Staphylococcus aureus [13], 2 µg/mL (≈ 3.86 µM). For the same compound, the MIC with Staphylococcus aureus [1] is no more than 0.06 µg/mL; with Staphylococcus aureus [4] it was 32 µg/mL (≈ 61.8 µM); against Staphylococcus aureus [6], 32 µg/mL (≈ 61.8 µM); against Staphylococcus aureus [2], 2 µg/mL (≈ 3.86 µM); against Staphylococcus aureus [3], no more than 0.06 µg/mL; in the experiment on Staphylococcus aureus [7] it was no more than 0.06 µg/mL.
In the case of `CC[C@H]1NC(=O)[C@@H](NC(=O)c2ncccc2O)[C@@H](C)OC(=O)[C@H](c2ccccc2)NC(=O)[C@@H]2CC(=O)[C@H](CS[C@@H]3CN4CCC3CC4)CN2C(=O)[C@H](Cc2ccc(N(C)C)cc2)N(C)C(=O)[C@@H]2CCCN2C1=O` [QUINUPRISTIN] ({Picolinoyl(3-OH)}-T[dAbu]P[NMePhe(4-NMe2)][X1][Phg]; ester 1-C), the MIC came out at 4 µg/mL (≈ 3.91 µM) in the experiment on Staphylococcus aureus [1]; 4 µg/mL (≈ 3.91 µM) in the experiment on Staphylococcus aureus [4]; 4 µg/mL (≈ 3.91 µM) in the experiment on Staphylococcus aureus [5]; 1 µg/mL (≈ 0.978 µM) in the experiment with Staphylococcus aureus [6]; 4 µg/mL (≈ 3.91 µM) in the experiment with Staphylococcus aureus [2]; 4 µg/mL (≈ 3.91 µM) against Staphylococcus aureus [3]. Further, in the experiment on Staphylococcus aureus [7], the MIC came out at 4 µg/mL (≈ 3.91 µM).
In the case of `CN(C)[C@@H]1C(O)=C(C(N)=O)C(=O)[C@@]2(O)C(O)=C3C(=O)c4c(O)cccc4[C@@](C)(O)[C@H]3C[C@@H]12` [TETRACYCLINE], the MIC was 0.25 µg/mL (≈ 0.563 µM) in the experiment on Staphylococcus aureus [1]; 0.25 µg/mL (≈ 0.563 µM) in the experiment with Staphylococcus aureus [5]; 0.125 µg/mL (≈ 0.281 µM) with Staphylococcus aureus [6]; 64 µg/mL (≈ 144 µM) with Staphylococcus aureus [2]; 64 µg/mL (≈ 144 µM) against Staphylococcus aureus [3]; 0.5 µg/mL (≈ 1.13 µM) in the experiment with Staphylococcus aureus [7].

For the origin of these results see ChEMBL document CHEMBL1275563, “Genetic characterization of Vga ABC proteins conferring reduced susceptibility to pleuromutilins in Staphylococcus aureus” (2008).
